# Like-named read-outs stand apart in the source and are kept apart here.
# How the values were obtained:
# [1] = cited from earlier work; for tmax: single 37-50 mg/kg dose of an oral solution
# [2] = cited from earlier work
# [3] = test system: Fmr1 KO2 mice; assay: Open field hyperactivity (locomotor activity), Fmr1 KO2 mice; format: in vivo, mouse; details: 0.1 mg/Kg
# Source text: (§1) Mutant fmr1 knockout (KO) mice recapitulate the Fragile X syndrome (FXS) phenotype and represent a preclinical model for assessment of putative drug treatments. In this study three different mice models of FXS were used: Fmr1 KO1 is the original Fmr1 knockout animal that carries an insertion in exon 5. See, e.g., Bakker C E, et al., The Dutch-Belgian Fragile X Consortium, Fmr1 knockout mice: A model to study fragile X mental retardation. Cell. 1994; 78:23-33 It is a protein null, although Fmr1 mRNA is still present. It is backcrossed to the C57/B16 strain. Subsequently, these mice were bred into different background strains, such as the FVB inbred mouse strain. Fmr1 KO2 is a null allele at Fmr1 generated by deletion of the promoter and first exon of Fmr1. See, Mientjes, E J et al., The generation of a conditional Fmr1 knock out mouse model to study Fmrp function in vivo. Neurobiology of Disease (2006) 21(3): 549-555. It is both protein and mRNA null. Backcrossed to the C57/B16 strain. Genotyping was accomplished using TransnetXY Automated Genotyping (http://www.transnetyx.com/). TRANSNETYX, INC., 8110 Cordova Rd. Suite 119, Cordova, TN 38016, USA.
# (§2) The mice were housed in plastic cages (35×30×12 cm), 5 in each and habituated to the animal facilities for at least a week before test. The room temperature (21±2° C.), relative humidity (55±5%), a 12-h light-dark cycle (lights on 7 a.m.-7 p.m.) and air exchange (16 times per h) were automatically controlled. The animals had free access to commercial food pellets and water. Testing was conducted during the light phase. Testing was conducted on Fmr1 knockout mice and their wild-type (WT) littermates. Ten mice per treatment group, 14 weeks of age, were used for behavioral experiments. Experiments were conducted in line with the requirements of the UK Animals (Scientific Procedures) Act, 1986.
# (§3) Oral dosing was performed by using 1.5-in. curved, 20-gauge, stainless steel feeding needles with a 2.25-mm ball (Braintree Scientific, Braintree, MA). Each gavage treatment was given in 0.5% methyl cellulose (Methyl Cellulose M0512, Sigma-Aldrich, St Louis, MO) used as vehicle with or without treatment compounds. The same veterinarian, blinded to the treatment groups, performed the procedure, and documented animal reactions to oral gavage. Reactions considered to indicate stress were defined as excessive struggling during gavage or abnormal behavior after gavage (labored breathing, frozen stance, exaggerated jumping, shuddering, and hunched posture).
# (§4) For experiments all mice were tested once in the same apparatus. Prior to testing, mice not in the study were placed in the apparatus for some minutes before the experiment. The apparatus was then cleaned with moist and dry tissues before testing each mouse. The aim was to create a low but constant background mouse odor for all experimental subjects. All experiments were conducted with the experimenters blind to genotype and drug treatment during all testing and data analysis. Separate investigators prepared and coded dosing solutions, allocated the mice to the study treatment groups, dosed the animals, and collected the behavioral data. Data were analyzed by one-way analysis of variance (ANOVA) followed by post-hoc comparisons where appropriate using Tukey's Multiple Comparison Test. Data are represented as the mean and standard error of the mean (SEM).
# 1. […]
# [4] = test system: Fmr1 KO1 mice; assay: Open field hyperactivity (locomotor activity), Fmr1 KO1 mice; format: in vivo, mouse; details: 0.1 mg/Kg
# Source text: as §1, §2, §3, §4
# 1. […]
# [5] = test system: Fmr1 KO1 transgenic mice in an FVB background; assay: Audiogenic seizures (AGS), Fmr1 KO1 mice in FVB background; format: in vivo, mouse; details: tested 20 minutes after injection, audio stimulus 60 seconds at 124 db
# Method: 4. Audiogenic Seizures (AGS) are reflex seizures generated by loud noises in genetically predisposed mice. The Fmr1 KO1 mice display audiogenic seizures depending on age and background strain, the Fmr1 KO1 mouse on the FVB background is characterized by an increased AGS susceptibility at all ages and is considered a good animal model for epilepsy. The effect of (S)-3-amino-4-(difluoromethylenyl) cyclopent-1-ene-1-carboxylic acid was tested on AGS Fmr1 KO1 transgenic mice in an FVB background. Observable criteria are: 1. normal behavior, 2. wild running, 3. seizure, and 4. respiratory arrest.
# (S)-3-amino-4-(difluoromethylenyl) cyclopent-1-ene-1-carboxylic acid was administered to Fmr1 KO1 mice, males, age 2 months in the following amounts: 0.01 mg/kg, 0.05 mg/kg, and 0.1 mg/kg. Positive controls were administered 2-Methyl-6-(phenylethynyl)pyridine (MPEP), a mGluR5 antagonist, 30 mg/kg by i.p. and tested 20 minutes after injection. Audio stimulus was administered continuously for 60 seconds at 124 db.
# [6] = MPEP (positive control) 30 mg/kg i.p.
smiles,measurement,setting,value
"C=CC(N)CCC(=O)O (racemic) [vigabatrin, (RS)-4-aminohex-5-enoic acid]",cerebrospinal concentrations as share of the plasma concentration,[1]; 6 h after a single oral dose,10%
same,terminal half-life,[1]; adults,~10.5 h
same,terminal half-life,[1]; children (10 years-16 years),~9.5 h
same,area under plasma concentration-time curves versus dose,[1]; in vivo,dose-linear pharmacokinetics
same,protein binding,[1]; in vivo,lack of protein binding
same,terminal half-life,[1]; infants (5 months-2 years),about 5.7 hours
same,tmax,[1]; children,about 1 hour
same,tmax,[1]; neonates and infants,approximately 2.5 hours
"N[C@H]1C[C@@H](C(=O)O)CC1=C(F)F [(1S,3S)-3-amino-4-(difluoromethylidene)cyclopentane-1-carboxylic acid]",increase in AUCs with dose,[2]; in the dose range 5 mg-500 mg,greater than proportional increase
same,Cmax increase with dose,[2]; over a range of 5 mg-500 mg,dose proportional
N[C@H]1C=C(C(=O)O)CC1=C(F)F [(S)-3-amino-4-(difluoromethylenyl)cyclopent-1-ene-1-carboxylic acid],Effect on open field hyperactivity (FIG. 1),[3],significantly reduced
same,Effect on open field hyperactivity (FIG. 7),[4],reversed hyperactivity
"Cc1cccc(C#Cc2ccccc2)n1 [MPEP, 2-Methyl-6-(phenylethynyl)pyridine, reference compound]",Seizure,[5]; 30 mg/kg i.p.,0/10
same,Wild running,[5]; 30 mg/kg i.p.,0/10
same,Incidence,[5]; [6],0%
same,Respiratory arrest,[5]; [6],0/10
